Laboratory results reported in patent publication US9868707B2, “Small molecule agonists of neurotensin receptor 1” (SANFORD-BURNHAM MEDICAL RESEARCH INSTITUTE, priority 2012, dated 2018).
Several values for one entry are separate records, joined by “and”; a condition that tells them apart may be missing. Identical values can stand only once.

Key:
[1] = Plasma protein binding, Rapid Equilibrium Device, human plasma; assay type: in vitro ADME; settings: human plasma (EDTA), diluted 1:1 with PBS, pH 7.4, Human, read-out: Plasma Protein Binding (% Bound) (converted)
Protocol: (§1) The extent of compound bound to plasma proteins was measured using the Rapid Equilibrium Device (Pierce Thermo Scientific, Rockford Ill.). The base plate was rinsed with […] followed by 2× washes with ultrapure water and allowed to dry. Human and mouse plasma (BioChemed Services, Winchester Va.) collected in EDTA was allowed to thaw at room temperature and then warmed to 37° C., and diluted 1:1 (v:v) with 1×PBS, pH 7.4, prior to the assay. The compound (1.0 and 10.0 μM final) was added to the chamber containing 300 μl plasma:PBS. Next, 500 μl of dialysis buffer (1×PBS, pH7.4) was added to the buffer chambers of the inserts. The chambers were covered with sealing tape and incubated at 37° C. on an orbital shaker at 300× rpm for 4 hours. After the incubation time, a sample volume of 50 μl from the buffer side, representing the free concentration, and an equivalent sample volume from the plasma side, representing the total concentration, i.e. the free concentration+the concentration of drug bound to protein, were transferred from the dialysis cells to a 96 deep well plate for LCMS analysis. Results reported are the mean of each reaction duplicate, normalized to the internal standard, and expressed as a percent compound bound after the incubation time. The amount of compound in the supernatant was determined by LC/MS/MS and the percent of free and bound compounds were calculated with the following formulas: Percent of free parent compound=(amount of compound in receiver chamber/amount of compound in donor chamber)*100.

plasma proteins = test: as above; assay type: in vitro ADME; settings: species not stated
Protocol: as §1

[2] = test system: Fa2N-4 immortalized human hepatocytes; test: Cell viability with ATP-lite (hepatic toxicity); assay type: cell-based
Protocol: Hepatic toxicity of compounds was determined with Fa2N-4 immortalized human hepatocytes using the ATP-lite 1-step assay (Perkin Elmer). assay according to the manufacturer's instructions. Fa2N-4 cells (XenoTech, Kansas City, Kans.) were seeded at 50,000 cells/well, and incubated with a range of concentrations of the test compound (0.01 μM-50 μM) in MFE support, media for 24 hrs at 37° C., 5% CO2. At the end of the experiment, cell viability was determined by cellular ATP levels using the ATP-lite kit according to the manufacturer's instructions Luminescence was measured on the Infinite M200 plate reader (Tecan US).

NTR1 = NTR1 (Homo sapiens, UniProt P30989); test: NTR1 high-content imaging (HCS) dose response, NTR1-U2OS cells; assay type: cell-based; parameters: host or cells: U2OS osteosarcoma; settings: n = 4 unless otherwise noted
Text: The cell lines utilized in the high-content imaging assays, which include the NTR1-, NTR2-, and GPR35-U2OS osteosarcomas, were obtained from the laboratory of Dr. Lawrence Barak at the Duke University Medical Center. The media used in the culture of the cell lines, as well as the assays themselves, consisted of Minimum Essential Medium (15-010-CM) and L-glutamine (25-005-CL) from Cellgro/Mediatech (Manassas, Va.), fetal bovine serum (SH30396.03) from Hyclone (Logan, Utah), penicillin-streptomycin solution (PS-20) from Omega Scientific in Tarzana, Calif., G418 (ant-gn-1) from Invivogen (San Diego, Calif.), and zeocin (R250-01) from Invitrogen (Carlsbad, Calif.). Cell lines were cultured in T225 tissue culture flasks (431082) supplied by Corning (Corning, N.Y.). Additional reagents employed include Dulbecco's Phosphate-Buffered Saline (DPBS) (21-031CV) from Cellgro/Mediatech, Trypsin-EDTA 0.05% (25300) from Invitrogen, paraformaldehyde (30528954) from Acros Organics (Geel, Belgium), Hoechst 33342 (H3570) from Invitrogen. The high-content assays were run in 1536-well plates (29326) supplied by Aurora Biotechnology (Poway, Calif.) and utilized aluminum plate seals (T592100) from E&K Scientific (Santa Clara, Calif.).
The neurotensin 1 peptide (N6383) from Sigma-Aldrich (St. Louis, Mo.) was used as a positive control in the NTR1 primary HCS assay. For the NTR2 selectivity assay, the non-specific, small molecule 3-(4-fluorophenyl)-7,8-dimethoxy-5-(4-methylbenzyl)-5H-pyrazolo[4,3-c]quinolone which was synthesized internally was used as a positive control. The GPR35 selectivity screen utilized zaprinast (ALX430-020-M010) from Alexis Biochemicals (Farmingdale, N.Y.) as a control.
The high-content imaging based NTR1 primary screen in 1536-well format was utilized to assay the MLSMR library of chemical entities in the following manner. On day one, 4 uL of a cell suspension containing 350,000 NTR1-U2OS cells per mL is added to each well of a 1536-well assay plate. Cells are plated in MEM medium containing 2.5% Fetal Bovine Serum, 1% Penicillin/Streptomycin solution, 1% L-Glutamine, 400 ug/mL G418, and 200 ug/mL Zeocin. The assay plates are then incubated overnight at 37° C., under 5% CO2. Following the overnight incubation, a volume of 60 nL of the compounds at 2 mM in DMSO (final 20 μM, 1% DMSO) was transferred to columns 5-48 of the assay plates using a LabCyte Echo Liquid Handler. Next, 60 nL of DMSO were dispensed to columns 1-4, which served as the positive and neutral control wells. […] The assay plates were centrifuged on an Eppendorf 5810 centrifuge at 1000 rpm for 1 min to ensure even liquid levels in the wells of the assay plates. The assay plates were then returned to the incubator for 1 hour. Following the hour-long incubation at 37° C., the cells in each well were fixed with 4 uL of 6% paraformaldehyde added with a Multidrop Combi. The assay plates were centrifuged as before and incubated at room temperature for 1 hour. On the Kalypsys, plates were then aspirated down to 2.5 uL per well and washed twice with 11 uL per well of DPBS, followed by a final aspiration to 2.5 uL per well. On the Combi dispenser, 5 uL of 5 ug/mL Hoechst 33342 diluted in DPBS was added to each well of assay plates. The plates were again centrifuged as previously described, sealed, and incubated for at least 1 hour prior to being loaded on a PerkinElmer Opera QEHS.
Image acquisition was performed with a 45 plate capacity loader/stacker and the following settings: 40×0.6 NA air objective, acquisition camera set to 2-by-2 binning for an image size of 688 by 512 pixels, beta-arrestin-GFP acquired using 488 nm laser excitation and 540/75 nm emission filters, DAPI (nuclei) using 365 nm Xenon lamp excitation and 450/50 nm emission filters, 3 fields per well. Image analysis was performed using the Acapella Spot Detection Algorithm. For analysis settings and the metrics employed in the data analyses, please refer to supplemental information.

[3] = test system: GPCR binding assay panel (˜40 receptors); test: PDSP GPCR binding assay panel
Text: However, these activities in in vitro binding assays may not translate into functional modulation of these receptors.

Sequence of NTR1 (P30989 whole entry, species assumed): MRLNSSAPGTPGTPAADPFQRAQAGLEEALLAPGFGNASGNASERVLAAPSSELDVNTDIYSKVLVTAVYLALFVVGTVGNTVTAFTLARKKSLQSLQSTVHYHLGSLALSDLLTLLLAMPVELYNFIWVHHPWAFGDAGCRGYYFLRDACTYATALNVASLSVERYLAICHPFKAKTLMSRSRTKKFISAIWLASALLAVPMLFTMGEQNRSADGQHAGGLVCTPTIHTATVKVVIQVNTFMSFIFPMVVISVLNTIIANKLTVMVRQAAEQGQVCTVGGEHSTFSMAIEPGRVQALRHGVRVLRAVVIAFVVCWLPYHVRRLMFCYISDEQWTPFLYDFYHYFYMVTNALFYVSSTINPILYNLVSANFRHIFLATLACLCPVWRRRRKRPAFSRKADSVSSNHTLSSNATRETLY

In the case of `COc1cc2nc(C3CC3)nc(N3CCN(c4ccccc4OC)CC3)c2cc1OC` [Compound 315, 2-cyclopropyl-6,7-dimethoxy-4-(4-(2-methoxyphenyl)piperazin-1-yl)quinazoline], the fraction unbound at 4 h, 1 μM ([1]; 1 μM) is reported as 0.0055, the fraction unbound at 4 h, 10 μM ([1]; 10 μM) is reported as 0.0078 and the “plasma protein binding” value (plasma proteins) is reported as “highly plasma protein bound”. The “window for toxicity towards human hepatocytes” value [2] was > 15 fold, the CC50 ([2]; 24 hrs, read-out: Toxicity Towards Fa2N-4 Immortalized Human Hepatocytes LC50) was 30 µM and 29.6 µM and the EC50 (NTR1; Ave. ± S.E.M., read-out: HCS NTR1 Potency EC50) was 2 ± 0.1 µM. For the same compound, the Emax (NTR1; read-out: HCS NTR1 Potency Emax) was 105%, the “promiscuity in GPCR binding assay panel” value ([3]; at 10 μM, ˜40 receptors tested) was “moderately promiscuous” and the Ki ([3]; on 7 receptors, read-out: Kis in GPCR binding assay panel) was < 10 µM.
